Source: paper PMC8234803, “In Vitro Metabolism of Six C-Glycosidic Flavonoids from Passiflora incarnata L” (International Journal of Molecular Sciences, 2021)
“Also recorded” adds a separate entry of the source.

Assays:
Caco-2 cell monolayer = assay: Caco-2 monolayer metabolism experiment, metabolites identified via UHPLC-DAD-MS(/MS); assay type: in vitro ADME, human; conditions: for Extent of metabolism (in words) / Phase II conjugates containing glucuronic acid or sulfates / Phase II metabolites with glucuronic acid or sulfates: 3 and 5 h; for Extent of phase I and II metabolism (in words): independent of incubation time and concentration; for Possible metabolite (phase II metabolite identified by MS/MS fragmentation and comparison with reference compound after enzymatic hydrolysis): glucuronidase/sulfatase cleavage, UHPLC-DAD-MS/MS
Experimental: To obtain information on the in vitro metabolism of the six tested C-glycosidic flavonoids in the intestine, experiments were carried out using the Caco-2 monolayer model (Figure 2). Metabolite profiles were characterized at two different concentrations (10 and 100 µM; n = 3) and after two different incubation times (3 or 5 h; n = 3) in order to determine the influence of concentration and time on the metabolism reactions that occurred. Furthermore, to analyze the distribution of the observed metabolites, samples were collected from the cell lysate and the apical and basolateral compartments. All samples of the metabolism experiments using the Caco-2 cell monolayer were analyzed using UHPLC-DAD-MS and UHPLC-DAD-MS/MS. Metabolites were identified by libraries that were prepared for each compound (Tables S1–S6). The O and IO libraries contained 67 metabolites (Tables S1 and S2), the S and IS libraries contained 106 metabolites (Tables S3 and S4), and the V and IV libraries contained 71 possible metabolites (Tables S5 and S6).
To form a confluent and differentiated monolayer, cells at passages 16–45 were seeded into the inserts of 12-well Transwell® plates at a density of 3.0 × 10^5 cells/cm^2. Afterwards, the culture medium was replaced every day, and the metabolism experiment was performed 21 days after seeding. The apical and basolateral compartments contained 0.5 and 1.5 mL of cell culture medium, respectively.
On day 21, the cell culture medium was removed from the apical and basolateral compartments, and the Caco-2 cell monolayer was washed two times with prewarmed HBSS. The Transwell® plates containing HBSS were incubated at 37 °C for 15 min to measure the transepithelial electrical resistance (TEER) value. The integrity of the cell monolayers was evaluated by TEER values between the apical and basolateral sides with the Evohm2 system (World Precision Instruments, Sarasota, FL, USA). The cell inserts were only used for the metabolism experiments if the resistance exceeded 350 Ω/cm^2. The six test substances were dissolved in DMSO to a stock solution of 20 mM. The HBSS was adjusted to pH 6.0 and 7.4 with 1 M HCl. Afterwards, the stock solutions were diluted to 10 or 100 µM in an appropriate volume of HBSS (pH 6.0) to obtain a DMSO concentration of <1%. The test solutions were added to the apical side (0.5 mL), while the basolateral side was filled with 1.5 mL of HBSS (pH 7.4). The Transwell® plates were incubated at 37 °C for 3 or 5 h, respectively. After this period, solutions from the apical and basolateral compartments were collected in separate tubes, washed twice with 500 µL of HBSS, and then collected again. The samples were lyophilized and stored at −20 °C until they were measured using UHPLC-DAD-MS. After the experiment, Transwell® inserts were apically (0.5 mL) and basolaterally (1.5 mL) filled with HBSS and warmed to 37 °C for 20 min. Then, the TEER values were measured to guarantee the integrity of the monolayer during the experiment. The experiment was performed in triplicate for each substance, concentration, and incubation time.
After the metabolism experiment, cell monolayers were washed twice with PBS and incubated with 200 µL of trypsin-EDTA for 10 min at 37 °C in an atmosphere of 5% CO2 and constant humidity in the incubator. The cells were removed from the well by pipetting up and down, and were collected in a tube. The well was washed twice with PBS (1 mL), and the wash solution was also collected in the corresponding tube. The mixture was centrifuged (1000× g rpm, 5 min), and the supernatant was discarded.

[1] = Stability testing in test buffer (HBSS pH 6.0) under assay conditions, HPLC-DAD; assay type: physicochemical; conditions: 10 µM in HBSS pH 6.0, 37 °C, 5% CO2; after 3 h of incubation
Experimental: To guarantee the stability of all test substances during the metabolism assay on Caco-2 cells, they were incubated in the test buffer under assay conditions. Test samples were collected each hour for 5 h and were measured via HPLC-DAD.
To ensure stability during the Caco-2 metabolism experiments, all test substances were dissolved in DMSO to a concentration of 20 mM and diluted to 10 µM in an appropriate volume of HBSS (pH 6.0), resulting in a DMSO concentration of less than 1%. The test solution (1 mL) was aliquoted into a 12-well Transwell® plate and incubated for 5 h in an atmosphere of 5% CO2 and 90% relative humidity at 37 °C. Test samples (100 µL) were collected after t = 0, 1, 2, 3, 4, and 5 h and measured via HPLC-DAD. The peak area of the test substance at time t = 0 h was defined as 100%, and all other peak areas were related to calculate the proportional stability. The stability was calculated as % = area/area0 × 100. Stability testing was performed on three independent days with freshly prepared solutions (n = 3).
The system consisted of the following: Elite LaChrom with an L2200 autosampler, L2130 pump, L2350 column oven, L2444 DAD, and EZChrom Elite 3.1.7 software (Hitachi, Tokyo, Japan); column: Kinetex® Biphenyl, 100 Å, 250-4.6 mm (5 µm, same material precolumn; Phenomenex, Torrance, CA, USA); injection volume 30 µL; oven temp.: 25 °C; autosampler temp.: 10 °C; detection wavelength: 340 nm; flow: 1.2 mL/min; A = H2O + 0.1% TFA, B = acetonitrile + 0.1% TFA; gradient: 0–2 min 10% B, 2–10 min 10% B → 100% B, 10–11 min 100% B → 10% B, 11–15 min 10% B.

Caco-2 cells = assay: MTT assay under metabolic conditions (cell viability); assay type: cell-based, human; conditions: 10, 25, 50, 75, 100 µM in HBSS (pH 6.0), 5 h incubation
Experimental: All six substances were tested in five different dilutions in HBSS (pH 6.0). The determined viability values of O, IO, S, IS, V, and IV are listed in the Supplementary Materials (Figure S2).
Caco-2 cells in the logarithmic growth phase were seeded in 96-well plates at a density of 3 × 10^4 cells/well and incubated at 37 °C in an atmosphere of 5% CO2 and constant moisture in an incubator. After 24 h, the cell culture medium was removed, and 100 µL of HBSS solution (negative control), 0.5% DMSO in HBSS solution (solvent control), or flavonoid samples in HBSS solution (6 flavonoids at concentrations of 10, 25, 50, 75, and 100 µM) was applied in quintuplicate and incubated for 5 h. Afterwards, the HBSS solutions were removed and replaced with an MTT solution in DMEM (0.4 mg/mL) and incubated for another 3 h at 37 °C. Then, the MTT solution was discarded, and the cells were fixed with a 10% SDS solution in PBS and stored at room temperature in the dark. After 24 h, the absorbance was measured on a Tecan microplate reader (Tecan Trading AG, Switzerland) at 560 nm. The viability rate was calculated as % = A/A0 × 100, with A as the average absorbance value of the treatment and solvent control groups and A0 as the average absorbance value of the negative control group. The assay was performed three times in pentaplicate.
The human colon adenocarcinoma cell line Caco-2 was obtained from the ATCC (American Type Culture Collection, Manassas, VA, USA). The cell line was determined to be free of mycoplasma contamination by PCR and culture from GATC Biotech AG (Konstanz, Germany). The cells were cultured in DMEM supplemented with 10% (v/v) FBS, 1% (v/v) NEAA, and 1% (v/v) antibiotics (penicillin/streptomycin) in an atmosphere of 5% CO2 and 90% relative humidity at 37 °C. The culture medium was replaced every 3 days, and the cells were split 1:5 using trypsin-EDTA once 90% confluence was obtained.

[2] = initial concentration 10 µM, 3 h, apical compartment
[3] = initial concentration 10 µM, 5 h, apical compartment
[4] = initial concentration 100 µM, 3 h, apical compartment
[5] = initial concentration 100 µM, 3 h, basolateral compartment
[6] = initial concentration 100 µM, 5 h, apical compartment

Row | Molecule | Extent of metabolism (in words) (Caco-2 cell monolayer; 10 µM) | Phase II conjugates containing glucuronic acid or sulfates (Caco-2 cell monolayer; 10 µM) | Extent of metabolism (in words) (Caco-2 cell monolayer; 100 µM) | Phase II metabolites with glucuronic acid or sulfates (Caco-2 cell monolayer; 100 µM) | Extent of phase I and II metabolism (in words) (Caco-2 cell monolayer) | Possible metabolite detected (Caco-2 cell monolayer; [2]) | Possible metabolite detected (Caco-2 cell monolayer; [3]) | Possible metabolite detected (Caco-2 cell monolayer; [4]) | Possible metabolite detected (Caco-2 cell monolayer; [5]) | Possible metabolite detected (Caco-2 cell monolayer; [6]) | Stability (content relative to t = 0 h) [1] | Effect on the viability of Caco-2 cells (in words) (Caco-2 cells) | Metabolites of the aglycones (cleavage of the C–C glycosidic bond) (Caco-2 cell monolayer; 100 µM approach) | Possible metabolite (phase II metabolite identified by MS/MS fragmentation and comparison with reference compound after enzymatic hydrolysis) (Caco-2 cell monolayer; metabolite at RT 2.514 5.107 min, m/z 527.0501) | Possible metabolite (phase II metabolite identified by MS/MS fragmentation and comparison with reference compound after enzymatic hydrolysis) (Caco-2 cell monolayer; metabolite at RT 5.134 min, m/z 477.0674) | Possible metabolite (phase II metabolite identified by MS/MS fragmentation and comparison with reference compound after enzymatic hydrolysis) (Caco-2 cell monolayer; metabolite at RT 5.476 min, m/z 461.0724) | Possible metabolite detected (Caco-2 cell monolayer; initial concentration 10 µM, 3 h, basolateral compartment) | Possible metabolite detected (Caco-2 cell monolayer; initial concentration 100 µM, 3 h, cell lysate) | Possible metabolite detected (Caco-2 cell monolayer; initial concentration 100 µM, 5 h, basolateral compartment) | Possible metabolite detected (Caco-2 cell monolayer; initial concentration 100 µM, 5 h, cell lysate)
1 | schaftoside | very limited metabolism | No phase II conjugates containing glucuronic acid or sulfates were detectable | a few hydroxylated and methoxylated derivatives | lacked the presence of phase II metabolites with glucuronic acid or sulfates | poorly metabolized in phase I and II reactions | Hydroxy-methoxy-schaftoside | Hydroxy-methoxy-schaftoside | Hydroxy-methoxy-schaftoside | Hydroxy-methoxy-schaftoside | Hydroxy-methoxy-schaftoside | approximately 100% | no significant effects at any concentration |  |  |  |  |  |  |  | 
2 | O=c1cc(-c2ccc(O)c(O)c2)oc2cc(O)c([C@@H]3O[C@H](CO)[C@@H](O)[C@H](O)[C@H]3O)c(O)c12 [IO, isoorientin] | broader ranges of phase I and II metabolites |  | extensive metabolism |  | highly metabolized in phase I and II reactions | Isoorientin-sulfate; also recorded: Hydroxy-luteolin-glucuronide; also recorded: Hydroxy-methoxy-isoorientin | Isoorientin-sulfate; also recorded: Hydroxy-methoxy-isoorientin | Methoxy-isoorientin-sulfate; also recorded: Hydroxy-luteolin-glucuronide; also recorded: Methoxy-luteolin; also recorded: Hydroxy-methoxy-isoorientin | Isoorientin-sulfate; also recorded: Hydroxy-methoxy-isoorientin | Hydroxy-isoorientin; also recorded: Methoxy-isoorientin-sulfate; also recorded: Hydroxy-luteolin-glucuronide | approximately 100% | no significant effects at any concentration | metabolites of the corresponding aglycones apigenin and luteolin were also detected | IO-sulfate | Quercetin-glucuronide | Luteolin-glucuronide | Isoorientin-sulfate; also recorded: Hydroxy-methoxy-isoorientin | Isoorientin-sulfate; also recorded: Methoxy-isoorientin | Isoorientin-sulfate | Isoorientin-sulfate; also recorded: Methoxy-isoorientin
3 | O=c1cc(-c2ccc(O)cc2)oc2c([C@@H]3O[C@H](CO)[C@@H](O)[C@H](O)[C@H]3O)c(O)c([C@@H]3OC[C@H](O)[C@H](O)[C@H]3O)c(O)c12 [IS, isoschaftoside] | very limited metabolism | No phase II conjugates containing glucuronic acid or sulfates were detectable | a few hydroxylated and methoxylated derivatives | lacked the presence of phase II metabolites with glucuronic acid or sulfates | poorly metabolized in phase I and II reactions |  |  | Methoxy-isoschaftoside |  |  | approximately 100% | no significant effects at any concentration |  |  |  |  |  |  |  | 
